Format in all cases: cell-based
The subject of one experiment is Enterococcus 89. The experiment in a line: two-fold brain-heart infusion agar dilution test. The following applies: BHI agar dilution, 10 ml/plate, read-out: minimum inhibitory concentration (MIC). The method, then:
(§1) The antibacterial activity of the above material was tested in the usual fashion, using a two-fold, brain-heart infusion agar (BHI 10 ml/plate) dilution test with 12 different organisms. The following minimum inhibitory concentrations (MIC) were determined: […]
On the technique in general: Agar dilution tests growth on a series of plates holding different concentrations.

The test system of a further experiment is Escherichia coli Juhl. The experiment in a line: two-fold brain-heart infusion agar dilution test. The following applies: BHI agar dilution, 10 ml/plate, read-out: minimum inhibitory concentration (MIC). How it is done: as §1
In experiment [1] the test system is Klebsiella pneumoniae 8045. Briefly: two-fold brain-heart infusion agar dilution test. The following applies: BHI agar dilution, 10 ml/plate, read-out: minimum inhibitory concentration (MIC). How it is done:
as §1

The subject of experiment [2] is Pasteurella multocida 10544. The experiment in a line: two-fold brain-heart infusion agar dilution test. The following applies: BHI agar dilution, 10 ml/plate, read-out: minimum inhibitory concentration (MIC). The method, then: as §1
In another experiment the test system is Proteus mirabilis Fin #9. Briefly: two-fold brain-heart infusion agar dilution test. The note with it: BHI agar dilution, 10 ml/plate, read-out: minimum inhibitory concentration (MIC). The method, then:
as §1

Experiment [3] deals with Proteus vulgaris Abbott JJ. Briefly: two-fold brain-heart infusion agar dilution test. The note with it: BHI agar dilution, 10 ml/plate, read-out: minimum inhibitory concentration (MIC). The method, then:
as §1

The test system of experiment [4] is Pseudomonas aeruginosa BMH #10. The experiment in a line: two-fold brain-heart infusion agar dilution test. The note with it: BHI agar dilution, 10 ml/plate, read-out: minimum inhibitory concentration (MIC). How it is done: as §1
Experiment [5] has as its system Salmonella typhimurium Ed. #9. The experiment in a line: two-fold brain-heart infusion agar dilution test. The following applies: Salmonella enterica, BHI agar dilution, 10 ml/plate, read-out: minimum inhibitory concentration (MIC). The method, then:
as §1

The next experiment relates to Staph. aureus 45. Briefly: two-fold brain-heart infusion agar dilution test. The note with it: Staphylococcus aureus, BHI agar dilution, 10 ml/plate, read-out: minimum inhibitory concentration (MIC). The method, then: as §1
The next experiment concerns Staph. aureus Smith. The experiment in a line: two-fold brain-heart infusion agar dilution test. The following applies: Staphylococcus aureus, BHI agar dilution, 10 ml/plate, read-out: minimum inhibitory concentration (MIC). How it is done:
as §1

The test system of experiment [6] is Streptococcus pyrogenes C203. Briefly: two-fold brain-heart infusion agar dilution test. The note with it: BHI agar dilution, 10 ml/plate, read-out: minimum inhibitory concentration (MIC). How it is done: as §1
Experiment [7] concerns Diplococcus pneumoniae 6301. Briefly: tube dilution test. The note with it: Streptococcus pneumoniae, broth with 20% horse serum, read-out: minimum inhibitory concentration (MIC). How it is done:
The antibacterial activity of the above material was tested in the usual fashion, using a two-fold, brain-heart infusion agar (BHI 10 ml/plate) dilution test with 12 different organisms. The following minimum inhibitory concentrations (MIC) were determined: | *tube dilution test; broth container with 20% horse serum

The text below walks through data of patent US4104306A, “12A-Deoxy chelocardin” (Abbott Laboratories, priority 1976, dated 1978).

Where a name gives a salt, the structure may show the parent alone.

Consider `CC(=O)C1=C(O)C(N)C2Cc3c(c(O)c4c(O)c(C)ccc4c3C)C(O)=C2C1=O` (stereo not drawn) [12a-deoxychelocardin hydrobromide], for which the MIC in the experiment with Enterococcus 89 stood at 6.2 µg/mL; in the experiment on Escherichia coli Juhl, 25 µg/mL; in experiment [1], 6.2 µg/mL; in [2], 0.39 µg/mL; with Proteus mirabilis Fin #9, 6.2 µg/mL; in experiment [3], 3.1 µg/mL. Further, the MIC came to 100 µg/mL in experiment [4]; 6.2 µg/mL in [5]; 3.1 µg/mL in the experiment with Staph. aureus 45; 3.1 µg/mL with Staph. aureus Smith; 6.2 µg/mL in experiment [6]; 25 µg/mL in experiment [7].
